Experimental data: patent EP0819124B1, “AZOLE COMPOUNDS WITH ANTIMYCOTIC ACTIVITY FOR HUMAN AND VETERINARY USE” (ZAMBON GROUP S.p.A., priority 1995, dated 1996)
Values after ≈ are worked out from the molar mass of the structure shown. Read-outs that look alike come from different tables or passages of the source.

Columns and labels:
C. krusei (2) = assay: In vitro antimycotic activity, strain panel (Table 2); assay type: cell-based, Candida krusei; conditions: Pichia kudriavzevii
Procedure: (§1) The determination of the activity inhibiting the growth of mycetes was evaluated by the macromethod of scalar brothdilutions in geometrical progression (M.R. McGinnis and M.G. Rinaldi, "Antifungal drugs: mechanisms of action, drug resistance, susceptibility testing and assay of activity in biological fluids", in Antibiotic in Laboratory Medicine, Ed. V. Lorian, Baltimora 1991).
(§2) As culture media Yeast Nitrogen Base broth (YNB) and Sabouraud Dextrose broth (SDB) were used for yeasts and moulds, respectively.
(§3) The results obtained in SDB (after incubation at 28°C for 7 days) were expressed as minimum inhibiting concentrations (MIC) the growth of mycetes, while those obtained in YNB (after incubation at 35°C for 48 hours) were expressed as concentrations able to inhibit at 50% (IC50) the growth of the yeast.
(§4) As reference compounds Fluconazole, Itraconazole and Genaconazole were used.
(§5) Note to the table: MIC expressed as µg/ml Within brackets the number of tested strains Table 3

B. capitatus (1) = assay: as above; assay type: cell-based; conditions: Magnusiomyces capitatus
Procedure: as §1, §2, §3, §4, §5

C. albicans (7) = assay: as above; assay type: cell-based; conditions: Candida albicans
Procedure: as §1, §2, §3, §4, §5

C. neoformans (4) = assay: as above; assay type: cell-based; conditions: Cryptococcus neoformans
Procedure: as §1, §2, §3, §4, §5

[1] = tested on: C. spp * (5) (C. parapsilosis, lusitaniae, kefyr); assay: as above; assay type: cell-based; conditions: Lodderomyces parapsilosis
Procedure: as §1, §2, §3, §4, §5

C. tropicalis (2) = assay: as above; assay type: cell-based; conditions: Candida tropicalis
Procedure: as §1, §2, §3, §4, §5

Trichosporon sp. (1) = assay: as above; assay type: cell-based
Procedure: as §1, §2, §3, §4, §5

Fusarium sp = assay: In vitro antimycotic activity against recently isolated Fusarium strains (Tables 2 and 3); assay type: cell-based; conditions: for MIC: Fusarium; for In vitro antimycotic activity: quantity and unit not given in Table 3
Procedure: as §1, §2, §3, §4, §5

A. niger = assay: In vitro antimycotic activity against recently isolated Aspergillus niger (Table 3); assay type: cell-based; conditions: A. niger strain 94-6222; quantity and unit not given in Table 3
Procedure: as §1, §2, §3, §4

C. albicans 1040 = assay: In vitro antimycotic activity, macromethod of scalar broth dilutions (YNB); assay type: cell-based, Candida albicans; conditions: Candida albicans, 1040, 48 h
Procedure: as §1, §2, §3, §4

C. neoformans = assay: as above; assay type: cell-based; conditions: Cryptococcus neoformans, 48 h
Procedure: as §1, §2, §3, §4

T.mentagrophytes = assay: In vitro antimycotic activity, macromethod of scalar broth dilutions (SDB); assay type: cell-based, Trychophyton mentagrophytes; conditions: Trichophyton mentagrophytes, 168 h
Procedure: as §1, §2, §3, §4

A. fumigatus = assay: as above; assay type: cell-based; conditions: Aspergillus fumigatus, 168 h
Procedure: as §1, §2, §3, §4

C. glabrata (2) = assay: In vitro antimycotic activity, strain panel (Table 2); assay type: cell-based, Candida glabrata; conditions: Nakaseomyces glabratus
Procedure: as §1, §2, §3, §4, §5

Candida albicans 1040 = assay: In vivo antimycotic activity in mice experimentally infected by C. albicans, oral route; parameters: species or system Charles River white mice (CD1 strain)
Procedure: Charles River white mice (CD1 strain) weighing from 23 to 25 g, normo-feeded with standard diet and water ad libitum were used.
A suspension (0.2 ml containing 2.5x10^7 cells/ml) of Candida albicans 1040 in physiologic solution was injected to each animal by venous route. Immediately after the infection and after 4, 24 and 48 hours, the animals received by oral route (in arabic gum at 2%) doses increasing in a geometrical progression of the compound to be tested. The infected group was used as control.
The observation of the mortality of the mice was prolonged up to 14 days. From the number of survived animals for each concentration the average protective dose (DP50) was calculated by probits analysis (L.Lison - "Statistica applicata alla biologia sperimentale. La programmazione dell'esperimento e l'analisi dei risultati" - Casa Editrice Ambrosiana, 1961).
Compounds R1 and R2 were used as comparative compounds.
Fluconazole and Itraconazole were used as reference compounds.

C[C@H]([C@](O)(Cn1cncn1)c1ccc(F)cc1F)S(C)(=O)=O [Genaconazole, (2R,3R) α-(2,4-difluorophenyl)-α-[1-(methylsulfonyl)ethyl]-1H-1,2,4-triazol-1-ethanol, reference compound]
MIC (C. krusei (2); C. krusei, 2 strains, range printed under head MIC50 MIC90, read-out: MIC): 16 to 32 µg/mL (≈ 48.3 to 96.6 µM)
MIC (B. capitatus (1); B. capitatus, 1 strain, single value under head MIC50 MIC90, read-out: MIC): 16 µg/mL (≈ 48.3 µM)
MIC50 (C. albicans (7); C. albicans, 7 strains, read-out: MIC50): 2 µg/mL (≈ 6.04 µM)
MIC90 (C. albicans (7); C. albicans, 7 strains, read-out: MIC90): 32 µg/mL (≈ 96.6 µM)
MIC50 (C. neoformans (4); C. neoformans, 4 strains, read-out: MIC50): 8 µg/mL (≈ 24.1 µM)
MIC90 (C. neoformans (4); C. neoformans, 4 strains, read-out: MIC90): 16 µg/mL (≈ 48.3 µM)
MIC50 ([1]; C. parapsilosis, lusitaniae, kefyr, 5 strains, read-out: MIC50): 0.5 µg/mL (≈ 1.51 µM)
MIC90 ([1]; C. parapsilosis, lusitaniae, kefyr, 5 strains, read-out: MIC90): 1 µg/mL (≈ 3.02 µM)
MIC (C. tropicalis (2); C. tropicalis, 2 strains, single value or range printed under head MIC50 MIC90, read-out: MIC): > 64 µg/mL
MIC (Trichosporon sp. (1); Trichosporon sp., 1 strain, single value under head MIC50 MIC90, read-out: MIC): 32 µg/mL (≈ 96.6 µM)
MIC (Fusarium sp): 64 µg/mL (≈ 193 µM)
In vitro antimycotic activity (Fusarium sp; Fusarium sp strain 81-256): 64
In vitro antimycotic activity (A. niger): 32

CC(COC(F)(F)C(F)F)C(O)(Cn1cncn1)c1ccc(Cl)cc1Cl (racemic) [Compound 1, (±)-1-(1H-1,2,4-triazolyl)-2-hydroxy-2-(2,4-dichlorophenyl)-3-methyl-4-(1,1,2,2-tetrafluoroethoxy)butane]
IC50 (C. albicans 1040): 0.0156 µg/mL (≈ 0.0375 µM)
IC50 (C. neoformans): 0.004 µg/mL (≈ 0.00961 µM)
MIC (T.mentagrophytes): 0.125 µg/mL (≈ 0.3 µM)
MIC (A. fumigatus): 8 µg/mL (≈ 19.2 µM)
MIC (C. krusei (2)): 0.03 to 0.12 µg/mL (≈ 0.0721 to 0.288 µM)
MIC (C. glabrata (2)): 0.12 µg/mL (≈ 0.288 µM)
MIC (B. capitatus (1)): ≤ 0.03 µg/mL
MIC50 (C. albicans (7)): ≤ 0.03 µg/mL
MIC90 (C. albicans (7)): 0.06 µg/mL (≈ 0.144 µM)
MIC50 (C. neoformans (4)): ≤ 0.03 µg/mL
MIC90 (C. neoformans (4)): ≤ 0.03 µg/mL
MIC50 [1]: ≤ 0.03 µg/mL
MIC90 [1]: ≤ 0.03 µg/mL
MIC (C. tropicalis (2)): 0.12 µg/mL (≈ 0.288 µM)
MIC (Trichosporon sp. (1); Trichosporon): ≤ 0.03 µg/mL
MIC (Fusarium sp): 0.25 µg/mL (≈ 0.601 µM)
In vitro antimycotic activity (Fusarium sp; Fusarium sp strain 81-256): 0.25
In vitro antimycotic activity (Fusarium sp; Fusarium sp strain 86-3369): 0.5
In vitro antimycotic activity (Fusarium sp; Fusarium sp strain 88-2116): 0.5
In vitro antimycotic activity (Fusarium sp; Fusarium sp strain 946301): 0.5
In vitro antimycotic activity (A. niger): ≤0.03
% percentage of survival after day 3 (Candida albicans 1040; mice infected by C. albicans, dose 25 mg/kg/os, day 3): 100%
% percentage of survival after day 6 (Candida albicans 1040; mice infected by C. albicans, dose 25 mg/kg/os, day 6): 100%
PD50 at 8th day (Candida albicans 1040; oral route, 8 days from the infection, probits analysis): 0.120 mg/kg/os
PD50 at 14th day (Candida albicans 1040; oral route, 14 days from the infection, probits analysis): 0.74 mg/kg/os
